Among the data in patent publication US7112593B2, “N-aryl-substituted cyclic amine derivative and medicine containing the same as active ingredient” (Eisai Co., Ltd., priority 2001, dated 2006) are IC50 values, retold here.

Molecules are shown by their SMILES.

A word on the IC50: it is the concentration that gives 50% inhibition.

The target in one test is T1, Squalene synthase (Rattus norvegicus, UniProt Q02769).
T1 construct: the obtained residue was used as a microsome fraction; from tissue; host or cells: liver microsome fraction of male Sprague-Dawley rat (8 to 9 weeks in age)
T1 sequence (Q02769 1-416): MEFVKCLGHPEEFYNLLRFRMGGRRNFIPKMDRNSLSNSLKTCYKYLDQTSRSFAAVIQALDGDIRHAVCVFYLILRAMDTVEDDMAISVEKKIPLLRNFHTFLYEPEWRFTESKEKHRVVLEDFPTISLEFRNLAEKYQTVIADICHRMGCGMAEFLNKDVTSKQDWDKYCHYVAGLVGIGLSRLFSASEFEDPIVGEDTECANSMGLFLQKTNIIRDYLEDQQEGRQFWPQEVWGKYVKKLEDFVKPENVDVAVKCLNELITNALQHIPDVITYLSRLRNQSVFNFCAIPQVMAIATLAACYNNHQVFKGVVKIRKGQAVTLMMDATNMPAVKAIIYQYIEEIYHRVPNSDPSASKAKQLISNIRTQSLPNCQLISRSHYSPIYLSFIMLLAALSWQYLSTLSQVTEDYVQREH
The test can be described thus: Measurement of squalene synthase inhibitive activity by using a rat liver microsome. Format: biochemical. The following applies: [3H]-farnesylpyrophosphoric acid. How it is done:
Measurement of Squalene Synthase Inhibitive Activity by Using a Rat Liver Microsome
(I) The reaction was run on a scale of 500 μl. 200 μl of a solution containing 125 mM tris-hydrochloric acid (pH: 7.3), 2.5 mM magnesium chloride, 5 mM potassium fluoride and 10 mM reduction type nicotinamidoadenine dinucleotide phosphoric acid, 100 μl of the specimen solution with a 5-fold concentration, 100 μl of distilled water and 50 μl of 0.4 to 1 mg/ml rat liver microsome prepared by the following method were mixed.
(II) The above mixture was pre-incubated at 37° C. for 10 minutes and thereafter, 50 μl of 100 μM [^3H]-farnesylpyrophosphoric acid (30 mCi/mmol, NEN) was added to the mixture to start a reaction. The reaction was continued at 37° C. for 10 minutes. 1 ml of ethanol was added to the resulting mixture to terminate the reaction and then 1 ml of distilled water and 3 ml of petroleum ether were added to the reaction solution, which was then shaken for 30 minutes. The water phase was separated from the organic phase, the water phase was frozen at −70° C. in dry ice/methanol and the radio activity of the organic phase was measured using a liquid scintillator. Or the organic phase was evaporated to dryness using nitrogen gas and the residue was dissolved as a marker in 25 μl of chloroform containing squalene, farnesol and cholesterol. This sample was spotted on a TCL plate (Merck) and developed using heptane for 15 to 20 minutes. A band of squalene was cut from the plate to measure the radio activity by using a liquid scintillation counter. The data was expressed by a concentration (IC50) at which 50% of the radio activity of a control group was inhibited.
Preparation Method for Rat Liver Microsome
All the following operations were performed on ice and centrifugation was performed at 4° C. […] The protein concentration of the suspension was quantitated by the Bradford method and the suspension was adjusted to 20 mg/ml with the same solution and stored at −70° C.
(Liver microsomes are a subcellular fraction often used to study metabolism.)

Another test deals with rat liver cell. The test is described as follows: Measurement of cholesterol biosynthesis inhibitive activity in a rat liver cell. Format: cell-based. The note with it: isolated male SD rat liver cells, [1-14C]acetic acid incorporation into free cholesterol. On the procedure: Measurement of Cholesterol Biosynthesis Inhibitive Activity in a Rat Liver Cell
A liver cell was isolated from a male SD rat according to a usual method (collagenase perfusion method) and subjected to an experiment.
The isolated liver cells were planted in an amount of 500 μl every well on a Type collagen coated 24 well plate (cell density: 4×10^5 cell/ml). As the cell culture solution, a Williams' E medium (adjusted to pH 7.4) containing 10% FCS, 1 μM insulin, 1 μM dexamethasone, 100 units/ml penicillin and 100 μg/ml streptomycin was used. After the liver cells were incubated in a CO2 incubator for 2 hours, unattached cells were removed and the liver cells were further incubated overnight.
After the culture medium was exchanged, the specimen diluted in a 10% DMSO-90% cell culture solution was added to each well inan amount of 5 μl. DMSO (final concentration: 0.1%) was added toacontrolgroup. A [1-^14C]Aceticacid, sodiumsalt (5 μCi/well) was added to the media 10 minutes after the specimen was added, followed by culturing for further 2 hours. […]
After the development was finished, the TLC plate was subjected to iodine color development. […] This transferred image was analyzed using a BAS 2000 IP Reader and an Imaging analyzer II to measure radio activities contained in the free cholesterol fractions. […]

`CO[C@@H]1CN(c2ccc(C#CC3(N)CCCCC3)c(Cc3ccccc3)n2)C[C@H]1O` [Example 7, 1-[2-Benzyl-6-[(3R,4R)-3-hydroxy-4-methoxypyrrolidin-1-yl]-3-pyridyl]ethynylcyclohexylamine] came in with an IC50 on Squalene synthase of 0.53 nM.

With `CO[C@@H]1CN(c2ccc(C#CC3(O)CCCNC3)c(Cc3ccccc3)n2)C[C@H]1O` (stereo partly drawn) [Example 1, 3-[2-Benzyl-6-[(3R,4R)-3-hydroxy-4-methoxypyrrolidin-1-yl]-3-pyridyl]ethynyl-3-piperidinol], the IC50 in the test on rat liver cell turned out to be 0.45 nM; against Squalene synthase, 1.4 nM.

In the case of `CO[C@H]1CN(c2ccc(C#C[C@@]3(O)CN4CCC3CC4)c(Cc3ccccc3)c2)C[C@H]1OC` [Example 18, (3R)-3-[2-Benzyl-4-[(3R,4S)-3,4-dimethoxypyrrolidin-1-yl)phenyl]ethynyl-3-quinuclidinol], in the test with rat liver cell, the IC50 came to 0.16 nM.

Consider `CO[C@H]1C(=O)N(c2ccc(C#CC3(N)CCCCC3)c(Cc3ccccc3)n2)C[C@H]1O` [Example 9, 1-[2-Benzyl-6-[(3R,4R)-4-hydroxy-3-methoxy-2-pyrrolidinon-1-yl]-3-pyridyl]ethynylcyclohexylamine], for which the IC50 at Squalene synthase stood at 0.78 nM.
